Source: patent US10344039B2, “Macrocyclic spirocarbamate derivatives as factor XIa inhibitors, pharmaceutically acceptable compositions and their use” (MERCK SHARP & DOHME CORP., priority 2015, dated 2019)
pKi: −log10 of the molar value.

Target: T1, purified human Factor XIa (Homo sapiens, UniProt P03951)
T1 construct: purified human Factor XIa; purchased Sekisui Diagnostics
Experiment: Factor XIa Assay
Type: biochemical
Settings: purified human Factor XIa 40 pM; substrate Z-Gly-Pro-Arg-AFC 100 μM; 50 mM HEPES pH 7.4; read-out: Hu FXIa Ki
Method: The effectiveness of a compound of the present invention as an inhibitor of Coagulation Factor XIa can be determined using a relevant purified serine protease, and an appropriate synthetic substrate. The rate of hydrolysis of the chromogenic or fluorogenic substrate by the relevant serine protease was measured both in the absence and presence of compounds of the present invention. Assays were conducted at room temperature or at 37° C. […] A decrease in the rate of fluorescence change in the presence of inhibitor is indicative of enzyme inhibition. Such methods are known to one skilled in the art. The results of this assay are expressed as the inhibitory constant, Ki.
Factor XIa determinations were made in 50 mM HEPES buffer at pH 7.4 containing 150 mM NaCl, 5 mM CaCl2, and 0.1% PEG 8000 (polyethylene glycol; JT Baker or Fisher Scientific). Determinations were made using purified human Factor XIa at a final concentration of 40 pM (Sekisui Diagnostics) and he synthetic substrate, Z-Gly-Pro-Arg-AFC, TFA salt (Sigma #C0980) at a concentration of 100 μM.
Activity assays were performed by diluting a stock solution of substrate at least tenfold to a final concentration ≤0.1 Km into a solution containing enzyme or enzyme equilibrated with inhibitor. Times required to achieve equilibration between enzyme and inhibitor were determined in control experiments. Initial velocities of product formation in the absence (Vo) or presence of inhibitor (Vi) were measured. Assuming competitive inhibition, and that unity is negligible compared Km/[S], [I]/e, and [I]/e (where [S], [I], and e respectively represent the total concentrations, of substrate, inhibitor and enzyme), the equilibrium constant (Ki) for dissociation of the inhibitor from the enzyme can be obtained from the dependence of Vo/Vi on [I] shown in the following equation. Vo/Vi=1+[I]/Ki
The activities shown by this assay indicate that the compounds of the invention may be therapeutically useful for treating or preventing various cardiovascular and/or cerebrovascular thromboembolic conditions in patients suffering from unstable angina, acute coronary syndrome, refractory angina, myocardial infarction, transient ischemic attacks, atrial fibrillation, stroke such as thrombotic stroke or embolic stroke, venous thrombosis, coronary and cerebral arterial thrombosis, cerebral and pulmonary embolism, atherosclerosis, deep vein thrombosis, disseminated intravascular coagulation, and reocclusion or restenosis of recanalized vessels. The Ki values measured for each of the example compounds of the invention using this assay are reported in the tables above (as “Hu FXIa Ki (nM)”).

T1 sequence (P03951 388-625 limits assumed): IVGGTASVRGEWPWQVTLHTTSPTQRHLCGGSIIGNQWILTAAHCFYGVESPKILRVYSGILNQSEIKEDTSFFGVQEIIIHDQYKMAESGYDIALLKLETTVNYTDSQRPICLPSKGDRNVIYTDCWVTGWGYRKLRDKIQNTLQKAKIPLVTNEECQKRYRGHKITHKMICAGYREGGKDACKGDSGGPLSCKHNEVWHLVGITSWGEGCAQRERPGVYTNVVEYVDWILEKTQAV
T1 sequence (P03951 19-387 partner limits assumed): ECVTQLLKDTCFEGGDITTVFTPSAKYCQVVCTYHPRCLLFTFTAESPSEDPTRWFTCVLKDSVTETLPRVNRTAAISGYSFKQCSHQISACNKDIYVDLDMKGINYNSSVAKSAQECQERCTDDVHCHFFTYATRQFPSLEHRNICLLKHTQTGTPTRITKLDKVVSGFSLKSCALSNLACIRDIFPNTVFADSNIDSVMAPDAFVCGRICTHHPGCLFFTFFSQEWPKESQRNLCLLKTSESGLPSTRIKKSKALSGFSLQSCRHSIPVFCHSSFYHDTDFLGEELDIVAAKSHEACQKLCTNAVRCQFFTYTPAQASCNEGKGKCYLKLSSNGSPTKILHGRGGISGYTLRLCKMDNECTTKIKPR

Molecule	pKi
COC(=O)Nc1ccc2c(c1)NC(=O)CCCCC[C@H](C(=O)N1CC[C@@]3(C1)OC(=O)Nc1ccc(Cl)c(F)c13)c1cc-2ccn1 [Example 18b, methyl ((S)-10-((R)-6-chloro-5-fluoro-2-oxo-1,2-dihydrospiro[benzo[d][1,3]oxazine-4,3′-pyrrolidine]-1′-carbonyl)-4-oxo-3-aza-1(4,2)-pyridina-2(1,2)-benzenacyclodecaphane-2^4-yl)carbamate]	6.70
COC(=O)Nc1ccc2c(c1)NC(=O)CCCCC[C@@H](C(=O)N1CCC[C@@]3(C1)OC(=O)Nc1ccc(Cl)c(F)c13)c1cc-2ccn1 [Example 19a, methyl ((R)-10-((R)-6-chloro-5-fluoro-2-oxo-1,2-dihydrospiro[benzo[d][1,3]oxazine-4,3′-piperidine]-1′-carbonyl)-4-oxo-3-aza-1(4,2)-pyridina-2(1,2)-benzenacyclodecaphane-2^4-yl)carbamate]	7.31
COC(=O)Nc1ccc2c(c1)NC(=O)CCCCC[C@H](C(=O)N1CCC[C@@]3(C1)OC(=O)Nc1ccc(Cl)c(F)c13)c1cc-2ccn1 [Example 19b, methyl ((S)-10-((R)-6-chloro-5-fluoro-2-oxo-1,2-dihydrospiro[benzo[d][1,3]oxazine-4,3′-piperidine]-1′-carbonyl)-4-oxo-3-aza-1(4,2)-pyridina-2(1,2)-benzenacyclodecaphane-2^4-yl)carbamate]	< 6.06
Nc1ccc2c(c1)NC(=O)CC/C=C\C[C@@H](C(=O)N1CCC[C@@]3(C1)OC(=O)Nc1ccc(Cl)c(F)c13)c1cc-2ccn1 [Example 20a, (R)-1′-((R,Z)-2^4-amino-4-oxo-3-aza-1(4,2)-pyridina-2(1,2)-benzenacyclodecaphan-7-ene-10-carbonyl)-6-chloro-5-fluorospiro[benzo[d][1,3]oxazine-4,3′-piperidin]-2(1H)-one]	6.68
COC(=O)Nc1ccc2c(c1)NC(=O)CC/C=C/C[C@H](C(=O)N1CCC[C@@]3(C1)OC(=O)Nc1ccc(Cl)c(F)c13)c1cc-2ccn1 [Example 21b, methyl ((S,E)-10-((R)-6-chloro-5-fluoro-2-oxo-1,2-dihydrospiro[benzo[d][1,3]oxazine-4,3′-piperidine]-1′-carbonyl)-4-oxo-3-aza-1(4,2)-pyridina-2(1,2)-benzenacyclodecaphanen-2^4-yl)carbamate]	< 6.06
COC(=O)Nc1ccc2c(c1)NC(=O)CC/C=C\C[C@H](C(=O)N1CCC[C@@]3(C1)OC(=O)Nc1ccc(Cl)c(F)c13)c1cc-2ccn1 [Example 22b, methyl ((S,Z)-10-((R)-6-chloro-5-fluoro-2-oxo-1,2-dihydrospiro[benzo[d][1,3]oxazine-4,3′-piperidine]-1′-carbonyl)-4-oxo-3-aza-1(4,2)-pyridina-2(1,2)-benzenacyclodecaphanen-2^4-yl)carbamate]	< 6.06
COC(=O)Nc1ccc2c(c1)NC(=O)CCCCC(C(=O)N1CCC[C@@]3(C1)OC(=O)Nc1ccc(Cl)c(F)c13)c1cccc-2n1 (stereo partly drawn) [Example 24, methyl (9-((R)-6-chloro-5-fluoro-2-oxo-1,2-dihydrospiro[benzo[d][1,3]oxazine-4,3′-piperidine]-1′-carbonyl)-4-oxo-3-aza-1(2,6)-pyridina-2(1,2)-benzenacyclononaphane-2^4-yl)carbamate]	< 6.06
COC(=O)Nc1ccc2c(c1)NC(=O)CCCC[C@H](C(=O)N1CC[C@@]3(C1)OC(=O)Nc1ccc(Cl)c(F)c13)c1ccnc-2c1 [Example 25b, methyl ((S)-9-((R)-6-chloro-5-fluoro-2-oxo-1,2-dihydrospiro[benzo[d][1,3]oxazine-4,3′-pyrrolidine]-1′-carbonyl)-4-oxo-3-aza-1(2,4)-pyridina-2(1,2)-benzenacyclononaphane-2^4-yl)carbamate]	< 6.06
COC(=O)Nc1ccc2c(c1)NC(=O)CCCC[C@@H](C(=O)N1CCC[C@@]3(C1)OC(=O)Nc1ccc(Cl)cc13)c1cc(F)cc-2c1 [Example 29a, methyl ((R)-9-((R)-6-chloro-2-oxo-1,2-dihydrospiro[benzo[d][1,3]oxazine-4,3′-piperidine]-1′-carbonyl)-1^5-fluoro-4-oxo-3-aza-1(1,3),2(1,2)-dibenzenacyclononaphane-2^4-yl)carbamate]	6.65
COC(=O)Nc1ccc2c(c1)NC(=O)CCCC[C@H](C(=O)N1CCC[C@@]3(C1)OC(=O)Nc1ccc(Cl)cc13)c1cc(F)cc-2c1 [Example 29b, methyl ((S)-9-((R)-6-chloro-2-oxo-1,2-dihydrospiro[benzo[d][1,3]oxazine-4,3′-piperidine]-1′-carbonyl)-1^5-fluoro-4-oxo-3-aza-1(1,3),2(1,2)-dibenzenacyclononaphane-2^4-yl)carbamate]	< 5.06
COC(=O)Nc1ccc2c(c1)NC(=O)CCCC[C@H](C(=O)N1CCC[C@@]3(C1)OC(=O)Nc1ccc(Cl)c(F)c13)c1cc(F)cc-2c1 [Example 30a, methyl ((S)-9-((R)-6-chloro-5-fluoro-2-oxo-1,2-dihydrospiro[benzo[d][1,3]oxazine-4,3′-piperidine]-1′-carbonyl)-1^5-fluoro-4-oxo-3-aza-1(1,3),2(1,2)-dibenzenacyclononaphane-2^4-yl)carbamate]	< 5.06
COC(=O)Nc1ccc2c(c1)NC(C(=O)O)CCCCC(C(=O)N1CCC[C@@]3(C1)OC(=O)Nc1ccc(Cl)c(F)c13)c1nc-2c[nH]1 (stereo partly drawn) [Example 33, (Z)-9-((R)-6-chloro-5-fluoro-2-oxo-1,2-dihydrospiro[benzo[d][1,3]oxazine-4,3′-piperidine]-1′-carbonyl)-2^4-((methoxycarbonyl)amino)-1^1H-3-aza-1(4,2)-imidazola-2(1,2)-benzenacyclononaphane-4-carboxylic acid]	6.87
COC(=O)Nc1ccc2c(c1)NC(=O)[C@@H](C)CCC[C@H](NC(=O)N1CCC[C@@]3(C1)OC(=O)Nc1ccc(Cl)cc13)c1cc-2ccn1 [Example 39, methyl ((5S,9S)-9-((R)-6-chloro-2-oxo-1,2-dihydrospiro[benzo[d][1,3]oxazine-4,3′-piperidine]-1′-carboxamido)-5-methyl-4-oxo-3-aza-1(4,2)-pyridina-2(1,2)-benzenacyclononaphane-2^4-yl)carbamate]	6.34
COC(=O)Nc1ccc2c(c1)NC(=O)[C@H](C)CCC[C@H](NC(=O)N1CCC[C@@]3(C1)OC(=O)Nc1ccc(Cl)cc13)c1cc-2ccn1 [Example 40, methyl ((5R,9S)-9-((R)-6-chloro-2-oxo-1,2-dihydrospiro[benzo[d][1,3]oxazine-4,3′-piperidine]-1′-carboxamido)-5-methyl-4-oxo-3-aza-1(4,2)-pyridina-2(1,2)-benzenacyclononaphane-2^4-yl)carbamate]	< 5.30
(R)-6-chloro-1′-((R,Z)-2^4-fluoro-4-oxo-11H-3-aza-1(4,2)-imidazola-2(1,2)-benzenacyclononaphane-9-carbonyl)spiro[benzo[d][1,3]oxazine-4,3′-pyrrolidin]-2(1H)-one [Example 5b]	6.74
